{"source": "ChEMBL document CHEMBL4765416", "about": "“Design, synthesis, and evaluation of pyrrolidine based CXCR4 antagonists with in vivo anti-tumor metastatic activity” (Eur J Med Chem, 2020)", "key": {"[1]": {"target": "T1, C-X-C chemokine receptor type 4 (Homo sapiens, UniProt P61073)", "T1 sequence (P61073 whole entry)": "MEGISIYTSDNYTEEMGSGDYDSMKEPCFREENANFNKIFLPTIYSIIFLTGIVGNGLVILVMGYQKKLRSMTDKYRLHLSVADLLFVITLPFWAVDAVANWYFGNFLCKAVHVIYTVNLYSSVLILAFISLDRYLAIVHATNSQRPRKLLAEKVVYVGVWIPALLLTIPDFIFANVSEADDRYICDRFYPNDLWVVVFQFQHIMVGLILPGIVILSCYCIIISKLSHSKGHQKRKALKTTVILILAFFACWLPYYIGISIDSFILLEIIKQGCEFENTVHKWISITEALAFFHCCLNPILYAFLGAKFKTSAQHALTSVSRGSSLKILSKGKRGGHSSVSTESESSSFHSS", "test": "Antagonist activity at CXCR4 in human CD4-positive T cells assessed as inhibition of CXCL12-induced cytosolic calcium flux preincubated for 20 mins followed by CXCL12 addition by calcium 4 dye based FLIPR TETRA analysis", "format": "functional, cell-based, T cell"}, "[2]": {"test": "Half life in rat liver microsomes at 1 uM peincubated for 10 mins followed by NADPH addition and measured 60 mins by LC-MS/MS analysis", "format": "ADME, Microsome", "details": "time 70 min"}, "[3]": {"test": "Intrinsic clearance in rat liver microsomes at 1 uM peincubated for 10 mins followed by NADPH addition and measured 60 mins by LC-MS/MS analysis", "format": "ADME, Microsome", "details": "time 70 min, read-out: CLH"}, "[4]": {"target": "T1, C-X-C chemokine receptor type 4", "test": "Inhibition of APC-conjugated anti-human CXCR4 clone 12G5 binding to CXCR4 in human HPBALL cells measured after 3 hrs by FACS analysis", "format": "cell-based"}}}
{"smiles": "Cc1nc(CN2CCC[C@H]2c2ncccc2C)cc(N2CCC(N(C)C)CC2)n1", "values": [{"measurement": "IC50", "setting": "[1]", "result": 13, "unit": "nM"}]}
{"smiles": "COc1nc(CN(C)C2CCCc3cccnc32)cc(N2CCN(C)CC2)n1", "note": "(configuration not stated)", "values": [{"measurement": "half-life at 1 µM", "setting": "[2]", "result": 2.2, "unit": "min"}, {"measurement": "CLint scaled at 1 µM", "setting": "[3]", "result": 1130, "unit": "mL/min/kg"}]}
{"smiles": "Cc1nc(CN(C)C2CCCc3cccnc32)c(F)c(N2CCN(C)CC2)n1", "note": "(configuration not stated)", "values": [{"measurement": "half-life at 1 µM", "setting": "[2]", "result": 2.31, "unit": "min"}, {"measurement": "CLint scaled at 1 µM", "setting": "[3]", "result": 1080, "unit": "mL/min/kg"}]}
{"smiles": "Cc1nc(CN(C)C2CCCc3cccnc32)c(C#N)c(N2CCN(C)CC2)n1", "note": "(configuration not stated)", "values": [{"measurement": "half-life at 1 µM", "setting": "[2]", "result": 1.51, "unit": "min"}, {"measurement": "CLint scaled at 1 µM", "setting": "[3]", "result": 1640, "unit": "mL/min/kg"}]}
{"smiles": "Cc1nc(CN2CCC(C)C2c2ccccn2)cc(N2CCN(C)CC2)n1", "note": "(configuration not stated)", "values": [{"measurement": "IC50", "setting": "[4]", "result": 1550, "unit": "nM"}]}
{"smiles": "Cc1nc(CN2CCC[C@H]2c2ccccn2)cc(N2CCN(C)CC2)n1", "values": [{"measurement": "IC50", "setting": "[1]", "result": 2.7, "unit": "nM"}, {"measurement": "IC50", "setting": "[4]", "result": 220, "unit": "nM"}]}
{"smiles": "CCN(Cc1cc(N2CCN(C)CC2)nc(C)n1)C1CCCc2cccnc21", "note": "(configuration not stated)", "values": [{"measurement": "half-life at 1 µM", "setting": "[2]", "result": 1.95, "unit": "min"}, {"measurement": "CLint scaled at 1 µM", "setting": "[3]", "result": 1280, "unit": "mL/min/kg"}]}
{"smiles": "CN1CCN(c2cc(CN(C)C3CCCc4cccnc43)nc(C3CC3)n2)CC1", "note": "(configuration not stated)", "values": [{"measurement": "half-life at 1 µM", "setting": "[2]", "result": 1.02, "unit": "min"}, {"measurement": "CLint scaled at 1 µM", "setting": "[3]", "result": 2440, "unit": "mL/min/kg"}]}
{"smiles": "Cc1nc(CN(C)[C@H]2CCCc3cccnc32)cc(N2CCN3CCC[C@H]3C2)n1", "values": [{"measurement": "half-life at 1 µM", "setting": "[2]", "result": "< 1", "unit": "min"}, {"measurement": "CLint scaled at 1 µM", "setting": "[3]", "result": "> 497", "unit": "mL/min/kg"}]}
{"smiles": "CCN1CCN(c2cc(CN(C)[C@H]3CCCc4cccnc43)nc(C)n2)CC1", "values": [{"measurement": "half-life at 1 µM", "setting": "[2]", "result": 1.14, "unit": "min"}, {"measurement": "CLint scaled at 1 µM", "setting": "[3]", "result": 2180, "unit": "mL/min/kg"}]}
{"smiles": "Cc1ccc([C@@H]2CCCN2Cc2cc(N3CCN(C)CC3)nc(C)n2)nc1", "values": [{"measurement": "IC50", "setting": "[1]", "result": 4.9, "unit": "nM"}]}
{"smiles": "CCc1nc(CN(C)C2CCCc3cccnc32)cc(N2CCN(C)CC2)n1", "note": "(configuration not stated)", "values": [{"measurement": "half-life at 1 µM", "setting": "[2]", "result": 1.19, "unit": "min"}, {"measurement": "CLint scaled at 1 µM", "setting": "[3]", "result": 2090, "unit": "mL/min/kg"}]}
{"smiles": "Cc1nc(CN2CCCC2c2ccccn2)cc(N2CCN(C)CC2)n1", "note": "(configuration not stated)", "values": [{"measurement": "IC50", "setting": "[4]", "result": 319, "unit": "nM"}]}
